This note sets out measurements from patent US10364323B2, “Method for producing polyether carbonate polyols” (priority 2015, dated 2019).

As a reminder, the pKa is the negative logarithm of the acid dissociation constant.

The nature of the series: physchem. The source says: The pKa in the context of the process according to the invention is to be understood as meaning the negative decadic logarithm of the first dissociation constant of the carboxylic acid at a temperature of 25 degrees Celsius. […] The pKa of the carboxylic acid may be measured by determining the pH at the half-equivalence point. To this end, an aqueous solution of the carboxylic acid is titrated against sodium hydroxide solution of a defined concentration and in each case the pH of the solution is measured using a calibrated combination pH electrode. […] According to the Henderson-Hasselbalch equation at the half-equivalence point the pKa corresponds to the measured pH because the acid and its corresponding base are present in equal concentration. Carboxylic acids having an insufficient solubility in water are titrated in methanolic solution (pKLy=16.7) or ethanolic solution (pKLy=19.1), wherein pKLy is defined as follows for non-aqueous media.
[formula] […] Chem., 1985, Vol. 57, No. 6, pp. 865-876.

With `O=C(O)C(=O)O` [Oxalic acid], the pKa is recorded as 1.46.
For the compound `O=C(O)CCCCCC(=O)O` [Pimelic acid], the pKa stood at 4.71.
